Laboratory results taken from patent US8552048B2, “Phosphoramidate alkylator prodrugs for the treatment of cancer” (Threshold Pharmaceuticals, Inc., priority 2006, dated 2013).

How the values were obtained:
[1] = Single-dose toxicity in rats; type: in vivo
Method: A single-dose of TH302 was administered to rats and dogs over 30 min in order to achieve a rapid increase to relatively high drug levels. Rats were administered 50, 100, and 200 mg/kg, and dogs at 8, 16 and 32 mg/kg of TH302. […] These changes at the lowest toxicity level were fully reversible within 2 weeks.

[2] = Pharmacokinetics in CD-1 mice; type: in vivo; details: male, CD-1, mouse, plasma, ip, 50 mg/kg, 50 mg/kg i.p., read-out: terminal half-lives (t1/2)
Method: Pharmacokinetic studies were performed in male CD-1 (50 mg/kg i.p. or orally (p.o.)) or female nude mice (50 mg/kg i.v. or i.p.), male Sprague-Dawley rats (1, 5, 20 and 50 mg/kg i.v. and 100 mg/kg, p.o.), beagle dogs (20 mg/kg, i.v.) and cynomologus monkeys (20 mg/kg i.v.). Plasma TH302 concentrations were analyzed using a LC/MS method and the pharmacokinetic parameters computed using a noncompartmental method. Interspecies scaling was performed according to standard methods.

Structure (SMILES): Cn1c(COP(=O)(NCCBr)NCCBr)cnc1[N+](=O)[O-] [TH302]
- affected organs at the highest dose level ([1]; 200 mg/kg single dose): bone marrow, kidney, thymus and intestine
- lethality ([1]; single dose over 30 min, highest dose 200 mg/kg): lethality was observed
- primary findings at the lowest toxicity level ([1]; single dose study): reduction in white blood cell counts accompanied only by moderate weight loss in male rats
- time to full reversal of changes at the lowest toxicity level ([1]; single dose study): ≤ 2 weeks
- species specific toxicity at the highest dose ([1]; single dose, 200 mg/kg): rat adipose and spleen
- half-life [2]: 7.9 min
